Each structure is given as a SMILES string.

The data set is described as follows: Human HepG2 cell viability assay in 384 well format. Also on record: dose 125 nL, time 70.5 hour; cytotoxicity at 70.5 h: concentration not given beside the values. The class given is toxicity, cell-based. Conditions: HepG2 cells, read-out: Inhibition.
On to `COCc1nc(C(=O)N2CCCC(n3nc(C)cc3C)C2)cs1` (stereo not given), for which the cytotoxicity at 70.5 h is -8.71%.

Consider `Cn1ccnc1-c1cccc(NC(=O)NCCCO)c1`, for which the cytotoxicity at 70.5 h stood at 1.83%.

Turning to `Cc1nc(CN2CCCCC2Cn2cncn2)nc2ccccc12` (stereo not given), the cytotoxicity at 70.5 h came out at 20.9%.

With `O=C(N1CCOCC1)[C@@]12CCO[C@@H]1CCN(Cc1ccccc1F)C2`, the cytotoxicity at 70.5 h is -9.82%.

As to `CC(C)NC(=O)N1CCOC2(CCCN(c3ncccc3F)C2)C1` (stereo not given), the cytotoxicity at 70.5 h is -13.6%.

Turning to `CN(C1CCN(C(=O)NCCc2ccc(F)cc2F)CC1)S(C)(=O)=O`, the cytotoxicity at 70.5 h was -5.3%.

Turning to `O=c1[nH]c(NCc2cccc(-c3ccccc3)c2)nc2c1CCNC2`, the cytotoxicity at 70.5 h was -21%.

For `O=C(NCCS(=O)(=O)N1CCN(c2ncccn2)CC1)c1ccccc1`, the cytotoxicity at 70.5 h is -7.9%.

Turning to `O=C(Nc1cn[nH]c1)NC1CCN(c2ccccc2OC(F)F)C1` (stereo not given), the cytotoxicity at 70.5 h is 2.39%.

As to `O=C1Nc2ccccc2C12CCN(Cc1ccccn1)CC2`, the cytotoxicity at 70.5 h was 0.291%.

For `CCCc1nnc(C(=O)N(C)Cc2ccc(OC)cc2)o1`, the cytotoxicity at 70.5 h was -2.69%.

Consider `CC(C)(C)NC(=O)N1CCC(NC(=O)Cc2cccnc2)CC1`, for which the cytotoxicity at 70.5 h was -3.09%.

On to `Fc1cccc(Cl)c1CN1CCn2c(nnc2C2CC2)C1`, for which the cytotoxicity at 70.5 h is -10.3%.

For the compound `Cc1cnn(CC2CN(CC(=O)Nc3cc(C)on3)CCO2)c1` (stereo not given), the cytotoxicity at 70.5 h was -5.06%.

On to `Cn1ccnc1S(=O)(=O)C(C(=O)N1CCCCC1)c1ccccc1` (stereo not given), for which the cytotoxicity at 70.5 h is 23.2%.

On to `CCC(CNS(C)(=O)=O)Oc1ccccc1F` (stereo not given), for which the cytotoxicity at 70.5 h was -6.95%.

Take `Cc1cc(NC(=O)C(C#N)Cc2cnn(C)c2C)no1` (stereo not given): the cytotoxicity at 70.5 h was -13.8%.

On to `OCc1cn(Cc2cccc(F)c2)nn1`, for which the cytotoxicity at 70.5 h is -12.4%.

On to `CC(C)CNC(=O)c1ccc(NC(=O)NC2CC2)cc1Cl`, for which the cytotoxicity at 70.5 h was -12.8%.

Consider `CCn1cc(N2Cc3nc(N)ncc3C2=O)cn1`, for which the cytotoxicity at 70.5 h is 29.8%.

Consider `CC(C)(C)NC(=O)CN1CCN(C(=O)Nc2ccc(F)cc2F)CC1`, for which the cytotoxicity at 70.5 h was determined as 9.46%.

On to `CCn1nc(C)c(NC(=O)CN2CC[C@H](CO)[C@@H](O)C2)c1C`, for which the cytotoxicity at 70.5 h was -11.7%.

In the case of `Cc1cc(C)n(CCN2CCC(N(C)Cc3noc(C4CC4)n3)C2)n1` (stereo not given), the cytotoxicity at 70.5 h was -4.52%.

On to `CSc1nc(C)cc(N2CCC(c3ncc[nH]3)CC2)n1`, for which the cytotoxicity at 70.5 h was -2.3%.

For `CC(C)CCC(=O)N1CCC2(CC1)OCCO2`, the cytotoxicity at 70.5 h is -4.64%.

Turning to `Cc1noc(C)c1C(=O)N1C[C@H]2CC[C@@H]1CN(c1cnccn1)C2`, the cytotoxicity at 70.5 h is -5.44%.

With `O=C(c1ncc[nH]1)N1CCC(n2cc(-c3ccccn3)nn2)CC1`, the cytotoxicity at 70.5 h was determined as 0.522%.

Turning to `Cc1ccc(CN(C(=O)NCC2CCS(=O)(=O)C2)C2CC2)o1` (stereo not given), the cytotoxicity at 70.5 h is -7.11%.

As for `COc1ccc(Cl)cc1CS(=O)(=O)Cc1nc(C)no1`, the cytotoxicity at 70.5 h amounted to 15.2%.

With `Cc1oncc1C(=O)N1CC[C@H]2[C@@H]1CCC(=O)N2CC1CC1`, the cytotoxicity at 70.5 h is 2.95%.

For the compound `Cc1nnc2n1CCN(C(=O)c1cc(Cl)c(Cl)n1C)C2`, the cytotoxicity at 70.5 h is -3.86%.

For the compound `O=C(NCCc1cccnc1)Nc1cc(C(F)(F)F)c[nH]c1=O`, the cytotoxicity at 70.5 h came out at 14.6%.

`COC(=O)c1sccc1S(=O)(=O)N1CCC(Oc2cccnn2)CC1`: the cytotoxicity at 70.5 h is -3.46%.

Regarding `CN(Cc1ccccc1OC(F)(F)F)C(=O)C1CCCN(C(N)=O)C1` (stereo not given), the cytotoxicity at 70.5 h is -6.37%.

Take `CC1(C)CCN1C(=O)c1cc(F)cc2[nH]cnc12`: the cytotoxicity at 70.5 h is -9.74%.

For the compound `CC(O)(CNS(=O)(=O)Cc1ccon1)c1ccsc1` (stereo not given), the cytotoxicity at 70.5 h worked out at 0.988%.

Consider `Cc1nc(C)c(CC(=O)NCc2cccnc2OC2CCCC2)c(=O)[nH]1`, for which the cytotoxicity at 70.5 h was -4.62%.

As for `CN(C)C(=O)CN(C)C(=O)c1csc(Br)c1`, the cytotoxicity at 70.5 h is 13.6%.

With `CC(=O)N1CCC(Cc2cccc(-c3c(C)noc3C)n2)C1` (stereo not given), the cytotoxicity at 70.5 h is -7.61%.

Consider `Cc1cc(CN2C[C@@H]3COC[C@@H](C(=O)N4CCCCO4)[C@@H]3C2)no1`, for which the cytotoxicity at 70.5 h worked out at 20.1%.

In the case of `O=C(NCCc1ccncc1)c1ccc(N2CCOCC2)cc1`, the cytotoxicity at 70.5 h amounted to 4.27%.

With `CC(C)C(C)NC(=O)Nc1cccc2c1CCN(S(C)(=O)=O)C2` (stereo not given), the cytotoxicity at 70.5 h is -2.03%.

As for `CN(C(=O)C(c1c(F)cccc1Cl)N(C)C)c1nccs1` (stereo not given), the cytotoxicity at 70.5 h came to 3.15%.

Regarding `O=C(CC(SC1CCCCC1)C(=O)O)c1ccc(Cl)cc1` (stereo not given), the cytotoxicity at 70.5 h is -4.64%.

In the case of `CN(C)Cc1noc2c1CN(C(=O)c1ccncc1)CC2`, the cytotoxicity at 70.5 h came to 5.83%.

Turning to `O=C(c1ccccn1)N1C[C@@H](OCc2cccnc2)[C@H]2OCCC[C@@H]21`, the cytotoxicity at 70.5 h was 9.73%.

On to `Cc1oncc1C(=O)N1CCC2(CC1)C(c1cnn(C)c1)CC(=O)N2C` (stereo not given), for which the cytotoxicity at 70.5 h was -9.68%.

Consider `Cn1cc(S(=O)(=O)NCC2CCN(C(=O)Oc3ccccc3)CC2)cn1`, for which the cytotoxicity at 70.5 h is 2.31%.

In the case of `CC[C@@]1(O)CCN(C(=O)c2ccc(CN3CCCCCC3)cc2)C[C@H]1O`, the cytotoxicity at 70.5 h was -3.75%.

Turning to `CC(C)c1nc(C(=O)N2C[C@H]3CC[C@@H]2CN(C2CCOCC2)C3)cs1`, the cytotoxicity at 70.5 h was -7.88%.

For `Cc1ccc(CN2CCOC3(CCCN(c4cccc(F)c4)C3)C2)o1` (stereo not given), the cytotoxicity at 70.5 h is -6.42%.

For the compound `COc1ccc(CN2C[C@@H]3COC[C@@H](N4CCN(C)CC4)[C@@H]3C2)cc1`, the cytotoxicity at 70.5 h was 0.325%.

Turning to `CCOCC1CN(C(=O)Cc2ccccn2)Cc2cn(CC)nc21` (stereo not given), the cytotoxicity at 70.5 h is -8.43%.

Take `CC(=O)N1CC[C@H]2OCC[C@@]2(C(=O)NCc2cnc(C)cn2)C1`: the cytotoxicity at 70.5 h was -5.25%.

Take `CC(=O)N(C)Cc1ccccc1NCc1c(C)noc1C`: the cytotoxicity at 70.5 h was -3.61%.

As to `Cn1cccc1C(O)CNS(=O)(=O)c1ccccc1Br` (stereo not given), the cytotoxicity at 70.5 h is -0.453%.

Take `N#Cc1ccccc1NC(=O)c1ccc2c(c1)OCO2`: the cytotoxicity at 70.5 h was -0.874%.

For `O=C(c1ncn2c1CNS(=O)(=O)c1ccccc1-2)N1CC=CC1`, the cytotoxicity at 70.5 h amounted to 1.87%.

As for `Cc1n[nH]c(C)c1-c1nccnc1CC1CCCN(C)C1` (stereo not given), the cytotoxicity at 70.5 h is -7.42%.

`CN(CCc1cccs1)C(=O)Nc1cnn(CC2CCCO2)c1` (stereo not given): the cytotoxicity at 70.5 h is -16%.

Turning to `CC(C)(C)CCS(=O)(=O)NCCc1csc(N2CCCC2)n1`, the cytotoxicity at 70.5 h is -2.83%.

In the case of `Cc1nc2c(c(NCC(O)c3ccccc3Cl)n1)CCNCC2` (stereo not given), the cytotoxicity at 70.5 h was -11.8%.

Take `COCCN1CCC2(COCc3cnc(N4CCOCC4)nc32)C1` (stereo not given): the cytotoxicity at 70.5 h was determined as 28.1%.

As to `CCN(Cc1cnn(C)c1)S(=O)(=O)c1ccc(NC(C)=O)cc1`, the cytotoxicity at 70.5 h was 9.84%.

For `CCc1n[nH]c(C2CN(C(=O)c3ccc4c(c3)CCCC4)CCO2)n1` (stereo not given), the cytotoxicity at 70.5 h is -8.34%.

With `COc1ccc(-c2cnc3c(c2)CN(C2CC2)C(=O)CCN3)cc1`, the cytotoxicity at 70.5 h is -4.59%.

Turning to `Cc1cn2c(n1)CCC(NS(=O)(=O)c1cc(C)sc1C)C2` (stereo not given), the cytotoxicity at 70.5 h was -3.85%.

Turning to `CC(C)Cc1nnc(SCC(=O)O)n1-c1ccc(F)cc1F`, the cytotoxicity at 70.5 h is 5.45%.

Take `CCOc1ncccc1NC(=O)NC1CCN(c2ncccn2)CC1`: the cytotoxicity at 70.5 h came out at 2.59%.

As for `COC(=O)N1CCc2ccccc2C1C(=O)NCC(F)(F)F` (stereo not given), the cytotoxicity at 70.5 h was -5.95%.

For the origin of these results see ChEMBL document CHEMBL3507680, “University of Dundee, Gates Library screen for HepG2 cell viability”.
